This note sets out measurements from patent US20250163119A1, “COMPOUNDS FOR THE TREATMENT OF DIABETES OR OBESITY” (Eli Lilly and Company, priority 2023, published 2025).

Several values for one entry are separate records, joined by “and”; a condition that tells them apart may be missing. Equal values may be shown once. Read-outs that look alike come from different tables or passages of the source. *1 amine or outer side, *2 acyl side, *3 side chain or, on linkers, in order; H or OH if unused. [ ]: non-standard residue; d: D form. The star is where a group is joined. C20 diacid = O=C(O)CCCCCCCCCCCCCCCCCCC(=O)*; γGlu = O=C(O)[C@H](CCC(=O)[*:2])N[*:1]; εLys = N[C@@H](CCCCN[*:1])C(=O)[*:2]; αMeL = CC(C)C[C@](C)(N)C(=O)O; AEEA = NCCOCCOCC(=O)O; Aib = CC(C)(N)C(=O)O

Data set [1] is described as follows: Pharmacokinetics in Cynomolgus monkeys, single subcutaneous or intravenous dose. The format is in vivo. The following applies: for Tmax: read-out: Tmax. How it is done: Plasma concentrations of compounds were determined by LC/MS methods. For each assay, the compound and an internal standard (IS), were extracted from 100% mouse, rat, pig, or monkey plasma (70 μL) using Isopropanol-Methanol. Two distinct layers were formed upon centrifugation with the compound and the IS located in the supernatant layer. An aliquot of the supernatant (150 μL) was transferred to a Waters Sirocco Protein Precipitation Plate. The supernatant was eluted using a positive pressure manifold. The supernatant was mixed with 100-2 Water-Formic acid (400 μL) in a pretreated Sep-Pak tC18 SPE plate and eluted to waste. The peptide and IS were eluted with Acetonitrile-Formic acid (100 μL) in 2 steps (50 μL each step). The elution (40 μL) from SPE plate was mixed with diluent solution (1.875 μL 5× invitrosol and 3.125 μL 1% formic acid in water, 80 μL). A final sample (10 μl) was loaded onto a Xselect CSH C18 IS column (3.5 μm 2.1×20 mm). The column effluent was directed into a Thermo Fisher Scientific Orbitrap (Exploris 240) mass spectrometer for detection and quantitation.
Male and female Cynomolgus monkeys were administered a single subcutaneous dose or intravenous dose (183 to 190 nmol/kg) of compound in 40 mM Tris-HCl 5% D-mannitol (pH 8) at a volume of 0.5 mL/kg. Blood was collected from each animal at 0.5, 3, 6, 24, 48, 72, 96, 168, 240, 336, 408, and 504 hours postdose for pharmacokinetic characterization.

For a further data set, the system named is CD4+ T cells. The data set is described as follows: T cell proliferation assay. The format is cell-based, human. The settings on record: responding donors / donors tested. On the procedure: This assay assessed the ability of tested antibodies or tested MAPPS peptides to activate CD4+ T cells by inducing cellular proliferation. CD8+ T cell depleted PBMC's were prepared and labeled with CFSE. Each sample was tested with media control, keyhole limpet haemocyanin (KLH; positive clinical benchmark control), tested antibodies, or tested MAPPS peptides. Cultures were incubated for 7 days. On day 7, samples were analyzed by flow cytometry.

Data set [2] relates to pre-existing antibodies (ADA) in treatment-naive normal human serum. As to the kind of experiment: Pre-existing reactivity (ACE assay format). It counts as binding. The following applies: ACE assay format. How it is done: This assay assessed the presence of pre-existing antibodies (ADA) against the tested molecules in treatment-naive normal human serum (NHS). Diluted NHS was incubated overnight on a Pierce Streptavidin plate coated with biotinylated tested molecules. On the following day, the captured binding proteins were acid eluted, hard-coated to a Mesoscale (MSD) plate, and detected with a combination of biotin-labeled molecule and ruthenium-labeled streptavidin. If anti-drug antibodies were present, they would bind the labeled drug and the resulting signal was referred to as Tier 1 signal (expressed as electrochemiluminescence). […] The presence of pre-existing anti-drug antibodies was expressed as magnitude of the 90th percentile of Tier 2 inhibition. The 90th percentile of Tier 2 inhibition is a statistical tool to assess the magnitude of specificity of Tier 1 reactivity. This 90th percentile was used to rank molecules in terms of ADA risk.

Setting [3] is: both sexes, cynomolgus monkey, plasma, iv, 190 nmol/kg, single intravenous dose 190 nmol/kg, Mean.
[4] abbreviates: both sexes, cynomolgus monkey, plasma, iv, 190 nmol/kg, single intravenous dose 190 nmol/kg, individual animal.
The mark [5] stands for this setting: both sexes, cynomolgus monkey, plasma, sc, 190 nmol/kg, single subcutaneous dose 190 nmol/kg, Mean.
[6] abbreviates: both sexes, cynomolgus monkey, plasma, sc, 190 nmol/kg, single subcutaneous dose 190 nmol/kg, individual animal.
[7] abbreviates: single intravenous dose 190 nmol/kg, individual animal.
Setting [8] is: single subcutaneous dose 190 nmol/kg, individual animal.

For orientation: half-life means how long it takes for the measured level to halve. A lower half-life goes with rapid decline. For orientation: Tmax means the time at which the peak concentration occurs. What is called Cmax is the highest concentration seen after dosing. “{C20 diacid-εLys-AEEA-γGlu}-GSPSIVTS[αMeL]DVPT[Aib][αMeL]LQKILEQERAEKARQQATEAAEILAQV-NH2 [SEQ ID NO: 25]”: the clearance is 11.5 mL/day/kg in data set [1] (setting [3]) and 12.8 mL/day/kg in data set [1] (setting [4]). Also, the half-life in data set [1] (setting [3]) was 113 h; in data set [1] (setting [4]) it was 100 h; in data set [1] (setting [5]), 199 h; in data set [1] (setting [6]), 184 h. Besides, the CL/F in data set [1] (both sexes, cynomolgus monkey, plasma, sc, 190 nmol/kg, single subcutaneous dose 190 nmol/kg, Mean, read-out: CL/F (converted)) was 12.3 mL/day/kg; in data set [1] (both sexes, cynomolgus monkey, plasma, sc, 190 nmol/kg, single subcutaneous dose 190 nmol/kg, individual animal, read-out: CL/F (converted)), 14.4 mL/day/kg; in data set [1] (setting [8]), 10.2 mL/day/kg. In addition, the Tmax in data set [1] (setting [5]) and in data set [1] (setting [6]) was 24 h each time. Also, the AUC0-inf was 458 µM·h in data set [1] (both sexes, cynomolgus monkey, plasma, sc, single subcutaneous dose 190 nmol/kg, Mean, read-out: AUC0-inf); 402 µM·h in data set [1] (both sexes, cynomolgus monkey, plasma, single intravenous dose 190 nmol/kg, Mean, read-out: AUC0-inf); 355 µM·h and 449 µM·h in data set [1] (setting [7]); 364 µM·h and 551 µM·h in data set [1] (setting [8]). In addition, the highest concentration (Cmax) in data set [1] (both sexes, cynomolgus monkey, plasma, sc, single subcutaneous dose 190 nmol/kg, Mean, read-out: Cmax) is 1610 nM; in data set [1] (setting [8]) it was 1540 nM and 1680 nM. Further, the C0 in data set [1] (both sexes, cynomolgus monkey, plasma, single intravenous dose 190 nmol/kg, Mean, read-out: C0) is 3500 nM; in data set [1] (setting [7]), 3040 nM and 3960 nM. In data set [1] (setting [7]), the “CL” value is 10.1 mL/day/kg. Moreover, the “T1/2” value in data set [1] (setting [7]) came out at 126 h; in data set [1] (setting [8]), 214 h. The “T Cell Proliferation Assay: protein 7-10 donors with diverse MHC” value in the data set with CD4+ T cells was 0/9. Also, the “Pre-existing Reactivity 90th percentile T2 inhibition >50 donors” value in data set [2] is 4.5%.
